The test system of series [1] is MT1-MMP. The note with it: HT1080 fibrosarcoma cell line; cited from earlier work.
Series [2] deals with cell surface-associated CD44 of IS-CD8+ T cells (UniProt P15379).
Series [3] addresses cell surface-associated CD44 of IS-CD8+ T cells (mouse) (UniProt P15379). As to the kind of experiment: cell-based or functional assay.
Series [4] concerns the target T1, MMP-2 (Homo sapiens, UniProt P08253).
T1 sequence (P08253 110-660): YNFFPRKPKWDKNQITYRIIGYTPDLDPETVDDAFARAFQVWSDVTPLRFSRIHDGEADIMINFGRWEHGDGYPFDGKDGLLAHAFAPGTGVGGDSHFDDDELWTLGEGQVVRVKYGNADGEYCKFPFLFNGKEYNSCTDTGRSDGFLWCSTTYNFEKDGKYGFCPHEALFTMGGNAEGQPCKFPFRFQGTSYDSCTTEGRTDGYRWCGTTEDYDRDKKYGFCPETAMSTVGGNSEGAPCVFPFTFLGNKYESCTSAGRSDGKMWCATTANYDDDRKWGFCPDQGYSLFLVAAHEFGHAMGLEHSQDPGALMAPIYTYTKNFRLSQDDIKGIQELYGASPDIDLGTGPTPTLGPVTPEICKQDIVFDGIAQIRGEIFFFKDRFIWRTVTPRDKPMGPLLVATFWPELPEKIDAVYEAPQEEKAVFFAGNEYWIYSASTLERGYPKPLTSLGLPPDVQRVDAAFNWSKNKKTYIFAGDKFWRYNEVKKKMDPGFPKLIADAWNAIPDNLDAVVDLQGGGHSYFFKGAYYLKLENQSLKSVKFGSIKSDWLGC
To be noted: cited from earlier work.

The target in series [5] is T2, MMP-9 (Homo sapiens, UniProt P14780). To be noted: cited from earlier work.
The conditions of series [6]: cited from earlier work.
The subject of series [7] is α1-antitrypsin.
In series [8] the test system is CD44. As to the kind of experiment: Cleavage of cellular CD44 by external MT1-MMP-CAT in IS-CD8+ cells (FACS, Western blotting). It is filed as cell-based, NOD mouse. To be noted: GM6001 50 μM added to cells co-incubated with MT1-MMP-CAT. Here is the method: Treatment of Cells with MT1-MMP-CAT—The catalytic domain of MT1-MMP (MT1-MMP-CAT; 3 μg) was co-incubated for 2 h at 37° C. with IS-CD8^+ cells (1×10^7 cells) in 0.2 ml of 50 mM HEPES, 10 Mm CaCl2, 0.5 mM MgCl2, 50 μM ZnCl2, and 0.01% Brij-35 buffer, pH 6.8. Where indicated, GM6001 (50 μM; Chemicon, Temecula, Calif.) was added to the samples. Following treatment, the cells were injected into the irradiated mice or used for DiI labeling, Western blotting, FACS analysis, and other analytical procedures (Savinov, A. Y., et al. (2003); Deryugina, E. I., et al. (2001); Rozanov, D. V., et al. (2001)).
Western Blotting—IS-CD8^+ cells were surface biotinylated for 1 h at 4° C. with 0.1 mg/ml sulfo-NHS-LC-biotin (Pierce, Rockford, Ill.). Following washes to remove biotin, cells were co-incubated for 2 h with MT1-MMP-CAT in serum-free, unsupplemented Click's medium. […]
Monoclonal Antibodies and FACS Analysis—IS-CD8^+ cells were stained with the MT1-MMP (Ab815; Chemicon), CD44 (clone IM7.8.1), CD3 (clone 17A2), and CD49d (clone SG31) monoclonal antibodies (all from BD Biosciences, Rockville, Md.) and the CD29 monoclonal antibody (Chemicon), followed by staining with fluorescein isothiocyanate- or phycoerythrinconjugated secondary antibody (BD Biosciences), and then analyzed on a FACScan flow cytometer (Becton Dickinson, Franklin Lakes, N.J.). […]

Series [9] has as its target T3, MT1-MMP (Mus musculus, UniProt P53690).
T3 construct: Endogenous MT1-MMP is latent in non-adherent IS-CD8^+ cells; endogenous in cells; host or cells: IS-CD8+ T cells (TGNFC8 clone, NOD mouse), adherent to gelatin
As to the kind of experiment: MT1-MMP-dependent MMP-2 activation in adherent IS-CD8+ cells, gelatin zymography. The series is classed as cell-based, NOD mouse. To be noted: Example 1: adherent IS-CD8+ cells on gelatin, 4 h. Here is the method:
MT1-MMP-dependent MMP-2 Activation and Gelatin Zymography—IS-CD8^+ cells (1×10^6) were either allowed to adhere for 4 h in serum-free unsupplemented Click's medium to plastic coated with 2% gelatin or kept in solution. Under these experimental conditions, the vast majority of cells became attached to gelatin. In 4 h, media samples (30 μl each) were withdrawn and analyzed by gelatin zymography (Deryugina, E. I., et al. (2001)) to identify the proteolytic activity and the activation status of MMP-2 naturally synthesized by IS-CD8^+ cells. Where indicated, cells were supplemented with external purified pro-MMP-2 (20 ng). Pro-MMP-2 was isolated from a conditioned medium of p2AHT2A72 cells derived from an HT1080 fibrosarcoma cell line sequentially transfected with the E1A and MMP-2 cDNAs (Strongin, A. Y., et al. (1995)).
MT1-MMP-dependent MMP-2 activation and gelatin zymography—IS-CD8^+ cells (1×10^6) were either allowed to adhere for 4 h in serum-free unsupplemented Click's medium to the plastic coated with 2% gelatin or kept in solution. In 18 h, media samples (30 μl each) were withdrawn and analyzed by gelatin zymography (Deryugina, E. I., et al. (2001)) to identify the proteolytic activity and the activation status of MMP-2 naturally synthesized by IS-CD8^+ cells. […] Pro-MMP-2 was isolated from a conditioned medium of p2AHT2A72 cells derived from an HT1080 fibrosarcoma cell line sequentially transfected with the E1A and MMP-2 cDNAs (Strongin, A. Y., et al. (1995)).

The test system of series [10] is CD44 shedding in IS-CD8+ cells. As to the kind of experiment: CD44 shedding in adherent IS-CD8+ cells, Western blotting. It is filed as cell-based, NOD mouse. The note with it: Example 1: adherent IS-CD8+ cells on gelatin. Here is the method: Western Blotting—IS-CD8^+ cells were surface biotinylated for 1 h at 4° C. with 0.1 mg/ml sulfo-NHS-LC-biotin (Pierce, Rockford, Ill.). Following washes to remove biotin, cells were co-incubated for 2 h with MT1-MMP-CAT in serum-free, unsupplemented Click's medium. The cells were then lysed with 50 mM N-octyl-β-D-glucopyranoside in phosphate-buffered saline supplemented with 1 mM CaCl2, 1 mM MgCl2, and protease inhibitor mixture containing phenylmethylsulfonyl fluoride (1 mM) and aprotinin, pepstatin, and leupeptin (1 μg/ml each). Biotin-labeled CD44 was captured from the cell lysate and from the medium aliquots on streptavidin-agarose beads. The captured samples were examined by Western blotting with the CD44 (clone IM7.8.1) antibody to determine the released, soluble, CD44 ectodomain in the medium samples and the residual, membrane-anchored, cellular CD44 in the cell lysates.
Western blotting—IS-CD8^+ cells were surface biotinylated for 1 hr at 4° C. with 0.1 mg/ml of sulfo-NES-LC-biotin (Pierce). Following washes to remove biotin, the labeled cells were allowed to adhere in serum-free medium to plastic coated with 2% type I collagen/gelatin for 4 h or were kept in suspension. Under these experimental conditions, the vast majority of the cells became attached to gelatin. […] The cells were then lysed with 50 mM N-octyl-β-D-glucopyranoside in PBS supplemented with 1 mM CaCl2, 1 mM MgCl2, and protease inhibitor cocktail containing phenylmethylsulfonyl fluoride (1 mM) and aprotinin, pepstatin, and leupeptin (1 μg/ml each). Biotin-labeled CD44 was captured from the cell lysate and from the medium aliquots on streptavidine-Agarose beads. The captured samples were examined by Western blotting with the CD44 (clone IM7.8.1) antibody to determine the released, soluble, CD44 ectodomain in the medium samples and the residual, membrane-anchored, cellular CD44 in the cell lysates.

Series [11] addresses T4, MMP-7 (Homo sapiens, UniProt P09237).
T4 sequence (P09237 95-267): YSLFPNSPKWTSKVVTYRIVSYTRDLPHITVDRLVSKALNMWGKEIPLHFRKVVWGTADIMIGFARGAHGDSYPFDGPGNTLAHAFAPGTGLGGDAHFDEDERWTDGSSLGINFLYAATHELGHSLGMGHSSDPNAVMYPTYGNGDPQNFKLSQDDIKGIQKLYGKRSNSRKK
To be noted: read-out: IC50 for MMP-7 inhibition; cited from earlier work.

Series [12] deals with T4, MMP-7. To be noted: read-out: EC50 against MMP-7; cited from earlier work.
The target of series [13] is T2, MMP-9. The note with it: read-out: EC50 against MMP-9; cited from earlier work.
The subject of series [14] is MT1-MMP. The note with it: read-out: EC50 against MT1-MMP; cited from earlier work.
Series [15] has as its system Zucker diabetic fatty rats. To be noted: cited from earlier work.

T2 sequence (P14780 94-707, species assumed): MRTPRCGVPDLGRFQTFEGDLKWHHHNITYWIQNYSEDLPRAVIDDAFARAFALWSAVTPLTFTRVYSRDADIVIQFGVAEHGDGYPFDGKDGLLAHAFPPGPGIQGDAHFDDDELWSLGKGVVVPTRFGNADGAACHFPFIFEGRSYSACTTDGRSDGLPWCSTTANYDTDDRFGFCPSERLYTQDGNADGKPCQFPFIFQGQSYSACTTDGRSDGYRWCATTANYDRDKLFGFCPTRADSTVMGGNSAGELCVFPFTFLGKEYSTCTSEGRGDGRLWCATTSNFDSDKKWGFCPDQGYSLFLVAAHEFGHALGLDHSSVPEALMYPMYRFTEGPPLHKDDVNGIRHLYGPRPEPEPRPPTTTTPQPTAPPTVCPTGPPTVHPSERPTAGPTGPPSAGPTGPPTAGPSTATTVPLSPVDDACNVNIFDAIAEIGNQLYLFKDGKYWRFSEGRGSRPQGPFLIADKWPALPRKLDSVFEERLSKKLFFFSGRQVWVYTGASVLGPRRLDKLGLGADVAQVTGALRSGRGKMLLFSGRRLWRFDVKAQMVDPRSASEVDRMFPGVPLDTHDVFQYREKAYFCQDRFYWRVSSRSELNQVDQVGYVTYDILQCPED
cell surface-associated CD44 of IS-CD8+ T cells, sequence (P15379 23-778): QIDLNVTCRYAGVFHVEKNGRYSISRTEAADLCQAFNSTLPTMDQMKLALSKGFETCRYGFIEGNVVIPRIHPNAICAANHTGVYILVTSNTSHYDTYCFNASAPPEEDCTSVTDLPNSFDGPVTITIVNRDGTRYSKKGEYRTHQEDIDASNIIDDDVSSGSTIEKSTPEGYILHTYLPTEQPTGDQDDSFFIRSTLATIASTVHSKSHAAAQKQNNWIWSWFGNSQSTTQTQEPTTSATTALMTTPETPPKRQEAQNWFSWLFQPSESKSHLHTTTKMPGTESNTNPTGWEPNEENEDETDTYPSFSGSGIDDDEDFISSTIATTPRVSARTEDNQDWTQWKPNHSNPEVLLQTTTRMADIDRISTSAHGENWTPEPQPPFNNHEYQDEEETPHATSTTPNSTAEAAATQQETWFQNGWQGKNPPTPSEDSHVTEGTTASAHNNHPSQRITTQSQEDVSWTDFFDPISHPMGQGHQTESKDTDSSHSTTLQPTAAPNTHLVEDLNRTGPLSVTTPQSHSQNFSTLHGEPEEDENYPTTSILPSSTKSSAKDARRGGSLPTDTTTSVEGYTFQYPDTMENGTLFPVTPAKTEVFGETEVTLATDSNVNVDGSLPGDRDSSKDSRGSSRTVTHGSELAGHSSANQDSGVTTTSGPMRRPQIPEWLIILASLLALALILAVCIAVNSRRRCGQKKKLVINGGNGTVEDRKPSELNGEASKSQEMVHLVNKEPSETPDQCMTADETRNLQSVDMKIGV
cell surface-associated CD44 of IS-CD8+ T cells (mouse), sequence (P15379 23-778): as above

As to `O=P(O)(O)C(Cl)(Cl)P(=O)(O)O` [Clodronate], the “expression of MT1-MMP protein and messenger RNA” value in [1] is given as “inhibited”.
As for “cell surface-associated MT1-MMP of IS-CD8+ T cells”, the “release of CD44 proteolytic fragments into medium, Western blotting” value in [2] is reported as “release of the CD44 proteolytic fragments into medium was detected only in adherent IS-CD8^+ cells”.
The compound “catalytic domain of MT1-MMP (MT1-MMP-CAT) (enzyme)” came in with a homing of DiI-labeled IS-CD8+ cells into the pancreatic islets of NOD mice, 24 h in series [3] of 4.5 fold.
Regarding `O=C(C[C@H](CSc1ccccc1)C(=O)O)c1ccc(-c2ccc(Cl)cc2)cc1` [BAY 12-9566], the “IC50 for MMP-2 inhibition” value in [4] is on record as “below 0.13 μg/mL”. Moreover, in series [5], the “IC50 for MMP-9 inhibition” value is “below 0.13 μg/mL”. Besides, in series [6] (after oral administration), the “time to peak plasma concentrations after dosing” value is 0.5 to 2 h. Further, the linearity of pharmacokinetics entry in [6] (normal volunteers, doses of up to 100 mg/day) is “linear”. In series [6] (repeated administration), the “effect of repeated administration on clearance” value is reported as “increased clearance”.
As for “MMP-2 (as incubated with α1-antitrypsin)”, the “cleavage of α1-antitrypsin in vitro, reducing SDS-gel electrophoresis” value in series [7] is “the MMP-2 proteolysis of α1-antitrypsin (a sensitive and readily available protein substrate of MMPs) and converting this 61 kDa serpin into a 55 kDa degradation fragment”.
Regarding `CNC(=O)[C@H](Cc1c[nH]c2ccccc12)NC(=O)[C@@H](CC(=O)NO)CC(C)C` [GM6001], the “effect on MT1-MMP-CAT cleavage of cellular CD44” value in series [8] is listed as “reversed the effect of MT1-MMP-CAT”. The “activation of MMP-2 in adherent cells” value in series [9] is “blocked”. Also, the “shedding of CD44 in adherent cells” value in [10] was “blocked”.
As to `CNC(=O)[C@H](Cc1ccccc1)NC(=O)[C@H](CC(C)C)[C@H](CSc1cccs1)C(=O)NO` [Batimastat], the IC50 in series [11] and in series [5] (read-out: IC50 for MMP-9 inhibition) was under 0.0209 µM each time.
As for `CC(C)[C@H](NS(=O)(=O)c1ccc(-c2ccc(Br)cc2)cc1)C(=O)O` [PD166793, (S)-2-(4′-bromo-biphenyl-4-sulfonylamino)-3-methyl-butyric acid], the EC50 (commonly the concentration giving half of the maximal effect) in series [12] was 7.2 µM; in series [13] it was 7.9 µM; in [14], 0.24 µM. The β cell mass result in series [15] is listed as “preserved β cell mass”.

The record behind these values is patent US20070203244A1, “INHIBITORS OF MEMBRANE TYPE-1 MATRIX METALLOPROTEINASE FOR THE TREATMENT OF INSULIN-DEPENDENT DIABETES MELLITUS” (priority 2006, published 2007).
